Reference: patent US20030083342A1, “Combination of organic compounds” (priority 2002, published 2003)
Where two headings read alike, the source gives them in different places.

Tests used:
pressor effect of Ang II = conditions: Ang II at 1 mg/kg, normotensive rats, cited from earlier work
response to Ang I = experiment: Response to injected Ang I in pretreated Wistar Kyoto rats; type: in vivo; conditions: Wistar Kyoto rats pretreated with (+)-fadrozole hydrochloride or valsartan 5 mg/kg/d; comparison of the two pretreatments
Description: The rats are divided into 5 groups: group 1, control (n=40); Group 2, valsartan (5 mg/kg/d; n=40); Group 3, the (+)-enantiomer of the hydrochloride of fadrozole (n=30); Group 4, a combination of the (+)-enantiomer of the hydrochloride of fadrozole and valsartan (5 mg/kg/d); n=30) and Group 5, valsartan (50 mg/kg/d; n=30). The drugs are administered in drinking fluid.

SMILES	reduction of the pressor effect of Ang II (pressor effect of Ang II; valsartan 5 mg/kg/d)	reduction of the pressor effect of Ang II (pressor effect of Ang II; valsartan 50 mg/kg/d)	response to Ang I injected (response to Ang I)
CCCCC(=O)N(Cc1ccc(-c2ccccc2-c2nnn[nH]2)cc1)[C@H](C(=O)O)C(C)C [valsartan, (S)-N-(1-carboxy-2-methylprop-1-yl)-N-pentanoyl-N-[2′(1H-tetrazol-5-yl)biphenyl-4-yl-methyl]amine]	49%	73%	similar
Cl.N#Cc1ccc([C@H]2CCCc3cncn32)cc1 [(+)-enantiomer of the hydrochloride of fadrozole]	–	–	similar
